# US20020132793A1, “Use of methylphenidate compounds to enhance memory” (priority 2000, published 2002)
# Assays:
# [1] = tested on: attention and learning; assay: Brief Visuospatial Memory Test in healthy human volunteers; assay type: in vivo
# Text: (§1) The primary objective of the study is to identify the MTD and dose-limiting side-effects of l-threo methylphenidate hydrochloride. The secondary objectives included:
# (§2) This was a randomised, double-blind, placebo-controlled, study including eight healthy male/female subjects. There were five treatment periods, each comprising two treatment days, with a 5-day washout period between dose levels. Subjects received four ascending doses of drug (a split dose on the first day of the treatment period and half the dose on the second day of the treatment period) and placebo. The placebo dose was randomly assigned to one of the five treatment periods. Each dose was taken orally.
# (§3) The first dose level was administered on Day 1 and Day 2. After a 5-day washout period, subjects received the next dose level for 2 days. The period of washout and dose escalation was repeated until all five dose levels (four active dose levels and one placebo) were administered. Safety and tolerability was assessed after each treatment period to determine if subjects may advance to the next dose level.
# Higher BVMT score indicates increased attention and learning.
# [2] = cited from earlier work
# [3] = tested on: IA memory in the rat; assay: Inhibitory Avoidance (IA) task in normal rats; assay type: in vivo; settings: for retention on the IA task: FIG. 1
# Description: An exemplary passive avoidance test utilizes an apparatus that consists of a lit chamber that can be separated from a dark chamber by a sliding door. At training, the animal is placed in the lit chamber for some period of time, and the door is opened. The animal moves to the dark chamber after a short delay—the latency—that is recorded. Upon entry into the dark chamber, the door is shut closed and a foot shock is delivered. Retention of the experience is determined after various time intervals, e.g., 24 or 48 hours, by repeating the test and recording the latency. The protocol is one of many variants of the passive avoidance procedures (for review, see Rush (1988) Behav Neural Biol 50:255).
# The Inhibitory Avoidance (IA) task is a well-studied behavioral paradigm which can provide the researcher with a consistent and long-lasting measure of memory. The paradigm consists of one training trial and one retention trial. Test articles may be administered to the rats either before or after training. Improved memory, as a result of test compound administration, is evident as increased latency on the retention trial. The objective of the following experiments was to investigate the effects of methylphenidate on IA memory in the rat.
# In this experiment, rats were injected with three different doses of methylphenidate thirty minutes prior to training on the IA task.
# Rats were injected with 5 mg/kg of methylphenidate and trained on the IA task.
# In this experiment, the time of drug administration was varied in order to determine the optimal pre-training drug administration time.
# This experiment was conducted in order to determine whether the enhanced retention observed in Experiment 2 was long-lasting. Rats received a second retention test one week after the first retention test. No additional training or drug was administered to the animals in the interim period.
# In the next experiment, we investigated whether the performance of amnesic rats could be improved by administration of methylphenidate. In this experiment, control rats and rats with lesions of the fornix received injections of either saline or methylphenidate (5 mg/kg), and one hour later, were tested on the IA task.
# Different doses of l-threo methylphenidate were administered to rats one hour prior to training on the Inhibitory Avoidance task. Retention for the task was tested 24 hours later. […] This experiment was subsequently replicated using a target dose of 5 mg/kg.
# The effects of d-threo methylphenidate on memory consolidation as tested by the Inhibitory Avoidance task were also evaluated. Different doses of d-threo were administered to rats one hour prior to training on the Inhibitory Avoidance task.
# [4] = tested on: memory retention; assay: Providence Recognition Memory Test (Pictoral) in healthy human volunteers; assay type: in vivo; settings: PRMT (ascending) and RAVLT (descending) experiments together
# Text: as §1, §2, §3
# Patients were assessed using the Providence Recognition Memory Test (Pictoral). Higher PRMT score indicates increased memory retention. […] This study was performed on Decending Plasma Curve of l-threo-methylphenidate. Higher RAVLT score indicates increased memory retention.
# [5] = tested on: locomotor activity; assay: Activity monitoring task (locomotor activity levels)
# Description: The effects of d-threo methylphenidate on locomotor activity was investigated by injecting rats with saline or 2.5 mg/kg of d-threo methylphenidate, and testing them one hour later on the activity monitoring task.
# In order to investigate the effects of l-threo methylphenidate on activity levels, rats were injected with 5 mg/kg of l-threo methylphenidate, and underwent activity monitoring one hour later.
# [6] = tested on: rats with lesions of the fornix; assay: Inhibitory Avoidance (IA) task in rats with lesions of the fornix; assay type: in vivo, rat; settings: 5 mg/kg, one hour before
# [7] = 5 mg/kg, one hour later, vs saline
# [8] = 2.5 mg/kg, tested one hour later, vs saline
structure (smiles),measurement,setting,value
"COC(=O)[C@@H](c1ccccc1)[C@@H]1CCCCN1 [l-threo methylphenidate, L-threo-methylphenidate]",enhancement of attention and learning by portion of the plasma curve,[1]; BVMT,more effective during the ascending portion of the plasma curve
same,"attention and learning, BVMT score","[1]; ascending blood concentration, oral, healthy volunteers, FIG. 14",can enhance attention and learning in patients
same,half-life relative to dl-threo methylphenidate,[2]; strong evidence,even shorter half-life
same,"performance on the Inhibitory Avoidance task, dose finding","[3]; 5 mg/kg one hour prior to training, retention tested 24 hours later, FIG. 4",appeared to be effective in enhancing performance
same,"performance of the Inhibitory Avoidance task, replication","[3]; 5 mg/kg one hour prior to training, t(59)=2.686, p<0.0094, FIG. 5",significantly enhanced performance
same,"memory enhancement, ascending vs descending portion of the plasma curve",[4],more effective during the ascending portion of the plasma curve
same,activity levels compared to saline injected controls,"[5]; 5 mg/kg, activity monitoring one hour later, FIG. 8",did not result in greatly increased activity levels
same,"locomotor hyperactivity, overall","[5]; 5 mg/kg, one hour later",does not appear to result in serious locomotor hyperactivity
same,number of movements,[5]; [7],no significant difference
same,number of stereotyped activities,[5]; [7],no significant difference
same,total distance moved,[5]; [7],no significant difference
same,number of rears,"[5]; 5 mg/kg, one hour later, vs saline, F(1, 70)=74.26, p<0.0001","small, but statistically significant main effects"
same,movement time,"[5]; 5 mg/kg, one hour later, vs saline, F(1, 70)=728, p<0.0033","small, but statistically significant main effects"
same,time spent resting,"[5]; 5 mg/kg, one hour later, vs saline, F(1, 70)=730.6, p<0.0032","small, but statistically significant main effects"
"COC(=O)C(c1ccccc1)C1CCCCN1 (racemic) [methylphenidate, methyl α-phenyl-2-piperidineacetate]",performance of the fornix lesion rats on the IA task,[6]; FIG. 3,appeared to improve
same,"performance of fornix animals vs normal, saline injected animals",[6]; post hoc test,"not significantly different from normal, saline injected animals"
same,half-life,[2]; in adults,2 to 3 h
same,time to excretion after dosing,[2]; in adults,48 to 96 h
same,retention on the IA task,[3]; 5 mg/kg injected thirty minutes prior to training,improved retention
same,performance of normal rats on the IA task,"[3]; 5 mg/kg, one hour before, FIG. 3",dramatically enhanced
same,performance of normal rats vs all other experimental groups (Student-Newman-Keuls post hoc),"[3]; 5 mg/kg, one hour before, p<0.05",significantly enhanced relative to all other experimental groups
same,optimal pre-training drug administration time,"[3]; 5 mg/kg, time of drug administration varied",most effective when administered to the rats one hour prior to training
same,"retention of the IA task, second experiment","[3]; 5 mg/kg, unpaired t-test p<0.03, FIG. 2",significantly improved retention
same,retention on the IA task,[3]; 10 mg/kg injected thirty minutes prior to training,no effect
same,retention on the IA task,[3]; 15 mg/kg injected thirty minutes prior to training,no effect
same,performance at second retention test (long-term retention),"[3]; one week after the first retention test, no additional training or drug, t(54)=2.358, p<0.0220",still significantly enhanced
"COC(=O)[C@H](c1ccccc1)[C@H]1CCCCN1 [d-threo methylphenidate, D-threo-methylphenidate]","memory consolidation in the Inhibitory Avoidance task, dose finding","[3]; 2.5 mg/kg one hour prior to training, FIG. 6",appears to be effective in improving memory
same,"memory in the Inhibitory Avoidance task, replication","[3]; 2.5 mg/kg, t(85)=2.403, p<0.0184, FIG. 7",significant memory enhancing effects
same,number of movements,[5]; [8],No significant main effects
same,number of stereotyped activities,[5]; [8],No significant main effects
same,total distance moved,[5]; [8],No significant main effects
same,number of rears,"[5]; 2.5 mg/kg, tested one hour later, vs saline, F(1, 70)=19.60, p<0.0234",Significant main effects
same,movement time,"[5]; 2.5 mg/kg, tested one hour later, vs saline, F(1, 70)=1304, p<0.0001",Significant main effects
same,rest time,"[5]; 2.5 mg/kg, tested one hour later, vs saline, F(1, 70)=1322, p<0.0001",Significant main effects
same,hyperactivity (locomotor activity),"[5]; 2.5 mg/kg, tested one hour later, vs saline, FIG. 9",did not produce a large amount of hyperactivity
